Test results taken from patent US10961248B2, “Pesticidally active heterocyclic derivatives with sulfur containing substituents” (SYNGENTA PARTICIPATIONS AG, priority 2016, dated 2021).

Key:
[1] = tested on: Diabrotica Balteata (Corn Root Worm); assay: Example B7: activity against Diabrotica balteata, sprayed maize sprouts; assay type: in vivo; conditions: 96 h, application rate 200 ppm, L2 larvae, 4 days after infestation, read-out: effect in at least one of the two categories (mortality or growth inhibition)
Method: Maize sprouts placed onto an agar layer in 24-well microtiter plates were treated with aqueous test solutions prepared from 10'000 ppm DMSO stock solutions by spraying. After drying, the plates were infested with L2 larvae (6 to 10 per well). The samples were assessed for mortality and growth inhibition in comparison to untreated samples 4 days after infestation.

[2] = tested on: Bemisia tabaci (Cotton White Fly); assay: Example B5: activity against Bemisia tabaci, sprayed cotton leaf discs; assay type: in vivo; conditions: foliar, 144 h, application rate 200 ppm, adult white flies, 6 days after incubation
Method: Cotton leaf discs were placed on agar in 24-well microtiter plates and sprayed with aqueous test solutions prepared from 10'000 ppm DMSO stock solutions. After drying the leaf discs were infested with adult white flies. The samples were checked for mortality 6 days after incubation.

[3] = tested on: Frankliniella occidentalis (Western Flower Thrips); assay: Example B4: activity against Frankliniella occidentalis, sprayed sunflower leaf discs; assay type: in vivo; conditions: foliar, 168 h, application rate 200 ppm, population of mixed ages, 7 days after infestation
Method: (§1) Sunflower leaf discs were placed on agar in 24-well microtiter plates and sprayed with aqueous test solutions prepared from 10'000 DMSO stock solutions. After drying the leaf discs were infested with a Frankliniella population of mixed ages. The samples were assessed for mortality 7 days after infestation.

[4] = tested on: Plutella xylostella (Diamond Back Moth); assay: Example B1: activity against Plutella xylostella, artificial diet in 24-well plates; assay type: in vivo; conditions: 120 h, application rate 200 ppm, L2 larvae on artificial diet, 5 days after infestation, read-out: effect in at least one of the two categories (mortality or growth inhibition)
Method: 24-well microtiter plates with artificial diet were treated with aqueous test solutions prepared from 10'000 ppm DMSO stock solutions by pipetting. After drying, the plates were infested with L2 larvae (10 to 15 per well). The samples were assessed for mortality and growth inhibition in comparison to untreated samples 5 days after infestation.

[5] = tested on: Spodoptera littoralis (Egyptian Cotton Leaf Worm); assay: Example B7: activity against Spodoptera littoralis, sprayed cotton leaf discs; assay type: in vivo; conditions: foliar, 72 h, application rate 200 ppm, L1 larvae, 3 days after infestation
Method: Cotton leaf discs were placed onto agar in 24-well microtiter plates and sprayed with aqueous test solutions prepared from 10'000 ppm DMSO stock solutions. After drying the leaf discs were infested with five L1 larvae. The samples were assessed for mortality, anti-feeding effect, and growth inhibition in comparison to untreated samples 3 days after infestation. Control of Spodoptera littoralis by a test sample is given when at least one of the categories mortality, anti-feedant effect, and growth inhibition is higher than the untreated sample.

[6] = tested on: Spodoptera littoralis (Egyptian Cotton Leaf Worm); assay: Example B7: activity against Spodoptera littoralis, compound in agar taken up by lettuce roots; assay type: in vivo; conditions: 144 h, test rate 12.5 ppm, systemic via lettuce roots, Spodoptera eggs, 6 days after infestation, read-out: effect in at least one of the three categories (mortality, anti-feeding, or growth inhibition)
From the text: Test compounds were applied by pipette from 10'000 ppm DMSO stock solutions into 24-well plates and mixed with agar. Lettuce seeds were placed onto the agar and the multi well plate was closed by another plate which contained also agar. After 7 days the compound was absorbed by the roots and the lettuce grew into the lid plate. The lettuce leaves were then cut off into the lid plate. Spodoptera eggs were pipetted through a plastic stencil onto a humid gel blotting paper and the lid plate was closed with it. The samples were assessed for mortality, anti-feedant effect and growth inhibition in comparison to untreated samples 6 days after infestation.

[7] = tested on: Myzus persicae (Green Peach Aphid); assay: Example B3: activity against Myzus persicae, roots of pea seedlings in test solution; assay type: in vivo; conditions: 144 h, test rate 24 ppm, roots of infested pea seedlings in test solution, 6 days
Method: Roots of pea seedlings infested with an aphid population of mixed ages were placed directly in the aqueous test solutions prepared from 10'000 DMSO stock solutions. The samples were assessed for mortality 6 days after placing seedlings in test solutions.

[8] = tested on: Tetranychus urticae (Two-Spotted Spider Mite); assay: Example B7: activity against Tetranychus urticae, sprayed bean leaf discs; assay type: in vivo; conditions: foliar, 192 h, application rate 200 ppm, mixed population (mobile stages), 8 days after infestation
Method: Bean leaf discs on agar in 24-well microtiter plates were sprayed with aqueous test solutions prepared from 10'000 ppm DMSO stock solutions. After drying the leaf discs were infested with a mite population of mixed ages. The samples were assessed for mortality on mixed population (mobile stages) 8 days after infestation.

[9] = tested on: Euschistus heros (Neotropical Brown Stink Bug); assay: Example B6: activity against Euschistus heros, sprayed soybean leaf; assay type: in vivo; conditions: 120 h, application rate 200 ppm, N-2 nymphs, 5 days after infestation, read-out: effect in at least one of the two categories (mortality or growth inhibition)
Method: Soybean leaf on agar in 24-well microtiter plates were sprayed with aqueous test solutions prepared from 10'000 ppm DMSO stock solutions. After drying the leaf were infested with N-2 nymphs. The samples were assessed for mortality and growth inhibition in comparison to untreated samples 5 days after infestation.

[10] = tested on: Myzus persicae (Green Peach Aphid); assay: Example B2: activity against Myzus persicae, sprayed sunflower leaf discs; assay type: in vivo; conditions: foliar, 144 h, application rate 200 ppm, aphid population of mixed ages, 6 days after infestation
Method: Sunflower leaf discs were placed on agar in a 24-well microtiter plate and sprayed with aqueous test solutions prepared from 10'000 ppm DMSO stock solutions. After drying, the leaf discs were infested with an aphid population of mixed ages. The samples were assessed for mortality 6 days after infestation.

[11] = tested on: Thrips tabaci (Onion Thrips); assay: Example B7: activity against Thrips tabaci, sprayed sunflower leaf discs; assay type: in vivo; conditions: foliar, 144 h, application rate 200 ppm, population of mixed ages, 6 days after infestation
Method: as §1, with “10'000 ppm” for “10'000”, “Thrips” for “Frankliniella”, “6” for “7”

With `CCS(=O)(=O)c1cc(N=S2CCOCC2)cnc1-c1nc2cc(C(F)(F)F)ncc2n1C` [P26, 2-[3-ethylsulfonyl-5-(1,4-oxathian-4-ylideneamino)-2-pyridyl]-3-methyl-6-(trifluoromethyl)imidazo[4,5-c]pyridine] the melting point was 214 °C (dec.).

With `CCS(=O)(=O)c1cc(N=S(C)(=O)C2CC2)cnc1-c1nc2cc(C(F)(F)F)nnc2n1C` (stereo not drawn) [P7, cyclopropyl-[[5-ethylsulfonyl-6-[7-methyl-3-(trifluoromethyl)imidazo[4,5-c]pyridazin-6-yl]-3-pyridyl]imino]-methyl-oxo-λ^6-sulfane] the percent effect (mortality or growth inhibition) at 200 ppm [1] was ≥ 80%, the mortality at 200 ppm [2] was ≥ 80% and the mortality at 200 ppm [3] was ≥ 80%. For the same compound, the percent effect (mortality or growth inhibition) at 200 ppm [4] was ≥ 80%, the percent control (mortality, anti-feedant effect or growth inhibition) at 200 ppm [5] was ≥ 80% and the percent effect (mortality, anti-feeding or growth inhibition) at 12.5 ppm [6] was ≥ 80%. For the same compound, the mortality at 24 ppm [7] was ≥ 80%, the mortality at 200 ppm [8] was ≥ 80% and the percent effect (mortality or growth inhibition) at 200 ppm [9] was ≥ 80%. For the same compound, the mortality at 200 ppm [10] was ≥ 80%.

`CCS(=O)(=O)c1cc(N=S(C)(=O)c2ccc(C)cc2)cnc1-c1cn2cnc(C(F)(F)F)cc2n1` (stereo not drawn) [P10, [5-ethylsulfonyl-6-[7-(trifluoromethyl)imidazo[1,2-c]pyrimidin-2-yl]-3-pyridyl]imino-methyl-oxo-(p-tolyl)-λ^6-sulfane] showed a melting point of 155 to 157 °C.

In the case of `CCS(=O)(=O)c1cc(N=S(C)(C)=O)cnc1-c1nc2cc(C(F)(F)F)ncc2n1C` [P2, [5-ethylsulfonyl-6-[3-methyl-6-(trifluoromethyl)imidazo[4,5-c]pyridin-2-yl]-3-pyridyl]imino-dimethyl-oxo-λ^6-sulfane], the percent effect (mortality or growth inhibition) at 200 ppm [1] is reported as ≥ 80%, the mortality at 200 ppm [2] is reported as ≥ 80% and the mortality at 200 ppm [3] is reported as ≥ 80%. For the same compound, the percent effect (mortality or growth inhibition) at 200 ppm [4] was ≥ 80%, the percent control (mortality, anti-feedant effect or growth inhibition) at 200 ppm [5] was ≥ 80% and the mortality at 24 ppm [7] was ≥ 80%. The mortality at 200 ppm [8] was ≥ 80%, the percent effect (mortality or growth inhibition) at 200 ppm [9] was ≥ 80% and the mortality at 200 ppm [11] was ≥ 80%. The mortality at 200 ppm [10] was ≥ 80%.

With `CCS(=O)(=O)c1cc(N=S(=O)(CC)CC)cnc1-c1nc2cc(C(F)(F)F)ncc2n1C` [P4, diethyl-[[5-ethylsulfonyl-6-[3-methyl-6-(trifluoromethyl)imidazo[4,5-c]pyridin-2-yl]-3-pyridyl]imino]-oxo-λ^6-sulfane] the percent effect (mortality or growth inhibition) at 200 ppm [1] was ≥ 80%, the mortality at 200 ppm [2] was ≥ 80% and the percent effect (mortality or growth inhibition) at 200 ppm [4] was ≥ 80%. The percent control (mortality, anti-feedant effect or growth inhibition) at 200 ppm [5] was ≥ 80%, the mortality at 200 ppm [8] was ≥ 80% and the percent effect (mortality or growth inhibition) at 200 ppm [9] was ≥ 80%. For the same compound, the mortality at 200 ppm [10] was ≥ 80%.

With `CCS(=O)(=O)c1cc(N=S2(=O)CCC2)cnc1-c1nc2cc(C(F)(F)F)ncc2n1C` [P11, 1-[[5-ethylsulfonyl-6-[3-methyl-6-(trifluoromethyl)imidazo[4,5-c]pyridin-2-yl]-3-pyridyl]imino]thietane 1-oxide] the percent effect (mortality or growth inhibition) at 200 ppm [1] was ≥ 80%, the mortality at 200 ppm [2] was ≥ 80% and the mortality at 200 ppm [3] was ≥ 80%. The percent effect (mortality or growth inhibition) at 200 ppm [4] was ≥ 80%, the percent control (mortality, anti-feedant effect or growth inhibition) at 200 ppm [5] was ≥ 80% and the mortality at 24 ppm [7] was ≥ 80%. The mortality at 200 ppm [8] was ≥ 80%, the percent effect (mortality or growth inhibition) at 200 ppm [9] was ≥ 80% and the mortality at 200 ppm [10] was ≥ 80%.

In the case of `CCS(=O)(=O)c1cc(N=S(C)(=O)C2CC2)cnc1-c1nc2cc(C(F)(F)F)ncc2n1C` (stereo not drawn) [P3, cyclopropyl-[[5-ethylsulfonyl-6-[3-methyl-6-(trifluoromethyl)imidazo[4,5-c]pyridin-2-yl]-3-pyridyl]imino]-methyl-oxo-λ^6-sulfane], the percent effect (mortality or growth inhibition) at 200 ppm [1] is reported as ≥ 80%, the mortality at 200 ppm [2] is reported as ≥ 80% and the mortality at 200 ppm [3] is reported as ≥ 80%. For the same compound, the percent effect (mortality or growth inhibition) at 200 ppm [4] was ≥ 80%, the percent control (mortality, anti-feedant effect or growth inhibition) at 200 ppm [5] was ≥ 80% and the percent effect (mortality, anti-feeding or growth inhibition) at 12.5 ppm [6] was ≥ 80%. For the same compound, the mortality at 200 ppm [8] was ≥ 80%, the percent effect (mortality or growth inhibition) at 200 ppm [9] was ≥ 80% and the mortality at 200 ppm [10] was ≥ 80%.

Work on `CCS(=O)(=O)c1cc(N=S2(=O)CCOCC2)ccc1-c1nc2cc(C(F)(F)F)nnc2n1C` [P25, 4-[3-ethylsulfonyl-4-[7-methyl-3-(trifluoromethyl)imidazo[4,5-c]pyridazin-6-yl]phenyl]imino-1,4-oxathiane 4-oxide] yielded a melting point of 253 to 255 °C.

For `CCS(=O)(=O)c1cc(N=S2(=O)CCOCC2)cnc1-c1nc2cc(C(F)(F)F)nnc2n1C` [P23, 4-[[5-ethylsulfonyl-6-[7-methyl-3-(trifluoromethyl)imidao[4,5-c]pyridazin-6-yl]-3-pyridyl]imino]-1,4-oxathiane 4-oxide], the mortality at 200 ppm [2] was ≥ 80%, the percent effect (mortality or growth inhibition) at 200 ppm [4] was ≥ 80% and the mortality at 24 ppm [7] was ≥ 80%. The mortality at 200 ppm [8] was ≥ 80%, the percent effect (mortality or growth inhibition) at 200 ppm [9] was ≥ 80% and the mortality at 200 ppm [10] was ≥ 80%.

For `CCS(=O)(=O)c1cc(N=S(C)(C)=O)cnc1-c1nc2cc(C(F)(F)F)nnc2n1C` [P9, [5-ethylsulfonyl-6-[7-methyl-3-(trifluoromethyl)imidazo[4,5-c]pyridazin-6-yl]-3-pyridyl]imidno-dimethyl-oxo-λ^6-sulfane], the percent effect (mortality or growth inhibition) at 200 ppm [1] was ≥ 80%, the mortality at 200 ppm [2] was ≥ 80% and the mortality at 200 ppm [3] was ≥ 80%. The percent effect (mortality or growth inhibition) at 200 ppm [4] was ≥ 80%, the percent control (mortality, anti-feedant effect or growth inhibition) at 200 ppm [5] was ≥ 80% and the mortality at 24 ppm [7] was ≥ 80%. For the same compound, the percent effect (mortality or growth inhibition) at 200 ppm [9] was ≥ 80%, the mortality at 200 ppm [11] was ≥ 80% and the mortality at 200 ppm [10] was ≥ 80%.
